≈ marks a conversion by molar mass, not a printed value. Calls of active or inactive are those of the source. The rule behind the calls is not given here.
What was measured:
[1] = system: Staphylococcus aureus; assay: Antibacterial activity against methicillin-resistant Staphylococcus aureus 2658 RCMB after 20 hrs by broth microdilution method; type: functional
[2] = system: Staphylococcus aureus; assay: Antibacterial activity against Staphylococcus aureus VRS11a clinical isolate after 20 hrs by broth microdilution method; type: functional
[3] = system: Enterococcus faecium; assay: Antibacterial activity against vancomycin-resistant Enterococcus faecium ATCC 700221 after 20 hrs by broth microdilution method; type: functional; details: ATCC 700221, 20 h
[4] = system: Staphylococcus aureus; assay: Antibacterial activity against Staphylococcus aureus VRS12 clinical isolate after 20 hrs by broth microdilution method; type: functional; details: VRS12, 20 h
[5] = system: Rattus norvegicus; assay: Oral bioavailability in Sprague-Dawley rat at 25 mg/kg administered via gavage measured over 24 hrs by LC-MS/MS analysis; type: ADME, organism-based; details: in vivo
[6] = system: Staphylococcus aureus; assay: Antibacterial activity against methicillin-resistant Staphylococcus aureus USA300 NRS384 at sub MIC after 14 passages over 2 weeks by broth microdilution method; type: functional, organism-based
[7] = system: HRT-18 cell line; assay: Cytotoxicity against human HRT18 cells assessed as decrease in cell viability up to 256 ug/ml after 2 hrs by MTS assay; type: cell-based; details: hrt-18, 2 h
[8] = system: Staphylococcus aureus; assay: Antibacterial activity against methicillin-resistant Staphylococcus aureus USA300 NRS384 by broth microdilution method
[9] = system: Staphylococcus aureus; assay: Antibacterial activity against methicillin-resistant Staphylococcus aureus USA300 NRS384 at sub MIC after 4 passages by broth microdilution method
[10] = system: BHK-21; assay: Cytotoxicity against BHK21 cells assessed as decrease in cell viability after 6 hrs by MTT assay; type: cell-based; details: Mesocricetus auratus, BHK-21, 6 h
[11] = system: Staphylococcus aureus; assay: Antibacterial activity against Staphylococcus aureus USA400 NRS123 clinical isolate after 20 hrs by broth microdilution method; type: functional; details: USA400 NRS123, 20 h
[12] = system: Enterococcus faecalis; assay: Antibacterial activity against vancomycin-resistant Enterococcus faecalis ATCC 51299 after 20 hrs by broth microdilution method; type: functional; details: ATCC 51299, 20 h
[13] = system: Staphylococcus aureus; assay: Bactericidal activity against methicillin-resistant Staphylococcus aureus USA300 at 4 times MIC after 12 hrs by time kill assay; type: functional
[14] = system: Staphylococcus aureus; assay: Antibacterial activity against Staphylococcus aureus VRS10 clinical isolate after 20 hrs by broth microdilution method; type: functional; details: VRS10, 20 h
[15] = system: Rattus norvegicus; assay: Cmax in Sprague-Dawley rat at 25 mg/kg administered via oral gavage measured over 24 hrs by LC-MS/MS analysis; type: ADME, organism-based; design: dose 25 mg/kg, route oral; details: in vivo
[16] = system: Staphylococcus aureus; assay: Potency index, ratio of vancomycin MIC to test compound MIC for Staphylococcus aureus VRS11a clinical isolate; type: functional
[17] = system: Klebsiella pneumoniae; assay: Antibacterial activity against Klebsiella pneumoniae BAA-1706 after 20 hrs by broth microdilution method; type: functional; details: BAA-1706, 20 h
[18] = system: Pseudomonas aeruginosa; assay: Antibacterial activity against Pseudomonas aeruginosa ATCC 15442 after 20 hrs by broth microdilution method; type: functional; details: ATCC 15442, 20 h
[19] = Ratio of Cmax in Sprague-Dawley rat at 25 mg/kg administered via oral gavage to MIC for methicillin-resistant Staphylococcus aureus 2658 RCMB; type: ADME, organism-based; details: in vivo
[20] = system: Staphylococcus aureus; assay: Bactericidal activity against methicillin-resistant Staphylococcus aureus USA300 at 4 times MIC after 24 hrs by time kill assay; type: functional, organism-based
[21] = system: Acinetobacter baumannii; assay: Antibacterial activity against Acinetobacter baumannii ATCC 19606 after 20 hrs by broth microdilution method; type: functional; details: ATCC 19606 = CIP 70.34 = JCM 6841, 20 h
[22] = system: HRT-18 cell line; assay: Cytotoxicity against human HRT18 cells assessed as decrease in cell viability at 512 ug/ml after 2 hrs by MTS assay; type: cell-based; details: hrt-18, 2 h
[23] = system: Enterobacter cloacae; assay: Antibacterial activity against Enterobacter cloacae BAA-1154 after 20 hrs by broth microdilution method; type: functional; details: BAA-1154, 20 h
[24] = AUClast in Sprague-Dawley rat at 25 mg/kg administered via oral gavage measured over 24 hrs by LC-MS/MS analysis; type: ADME, organism-based; design: dose 25 mg/kg, route oral, time 0 - last; details: in vivo
[25] = Aqueous solubility in PBS after 2 hrs; type: physicochemical; details: buffer
[26] = Half life in Sprague-Dawley rat at 25 mg/kg administered via oral gavage measured over 24 hrs by LC-MS/MS analysis; type: ADME, organism-based; details: in vivo
[27] = system: Staphylococcus aureus; assay: Potency index, ratio of vancomycin MIC to test compound MIC for Staphylococcus aureus VRS12 clinical isolate; type: functional
[28] = system: BHK-21; assay: Cytotoxicity against BHK21 cells assessed as decrease in cell viability after 24 hrs by MTT assay; type: cell-based; details: Mesocricetus auratus, BHK-21, 24 h
[29] = Ratio of non cytotoxic concentration against human HRT18 cells to MIC for methicillin-resistant Staphylococcus aureus 2658 RCMB; type: toxicity, cell-based
[30] = system: Rattus norvegicus; assay: Tmax in Sprague-Dawley rat at 25 mg/kg administered via oral gavage measured over 24 hrs by LC-MS/MS analysis; type: ADME, organism-based; details: in vivo
[31] = system: Staphylococcus aureus; assay: Antibacterial activity against Staphylococcus aureus RN4220 NRS107 clinical isolate after 20 hrs by broth microdilution method; type: functional; details: RN4220 NRS107, 20 h
[32] = system: Staphylococcus aureus; assay: Antibacterial activity against Staphylococcus aureus RN4220 NRS107 clinical isolate after 18 to 20 hrs by broth microdilution method; type: functional
[33] = system: Staphylococcus aureus; assay: Antibacterial activity against Staphylococcus aureus NRS119 clinical isolate after 18 to 20 hrs by broth microdilution method; type: functional
[34] = system: Staphylococcus aureus; assay: Antibacterial activity against Staphylococcus aureus NRS119 clinical isolate after 20 hrs by broth microdilution method; type: functional; details: NRS119, 20 h

Compound: Cc1nc(-c2ccc(-c3ccccc3)cc2)sc1-c1nnc(NC(C)C)o1
- MIC [1]: > 25 µg/mL

Compound: Cc1nc(-c2ccc(-c3ccccc3)cc2)sc1-c1nnc(NC2CCCC2)o1
- MIC [1]: > 25 µg/mL

Compound: CNc1nnc(-c2sc(-c3ccc(-c4ccccc4)cc3)nc2C)o1
- MIC [1]: 12.5 µg/mL (≈ 35.9 µM)

Compound: CCNc1nnc(-c2sc(-c3ccc(-c4ccccc4)cc3)nc2C)o1
- MIC [1]: > 25 µg/mL

Compound: CCCCNc1nnc(-c2sc(-c3ccc(-c4ccccc4)cc3)nc2C)o1
- MIC [1]: > 25 µg/mL

Compound: Cc1nc(-c2ccc(-c3ccccc3)cc2)sc1-c1nnc(NC(=N)N2CCCC2)o1
- MIC [1]: 12.5 µg/mL (≈ 29 µM)

Compound: CN[C@H](CC(C)C)C(=O)N[C@H]1C(=O)N[C@@H](CC(N)=O)C(=O)N[C@H]2C(=O)N[C@H]3C(=O)N[C@H](C(=O)N[C@H](C(=O)O)c4cc(O)cc(O)c4-c4cc3ccc4O)[C@H](O)c3ccc(c(Cl)c3)Oc3cc2cc(c3O[C@@H]2O[C@H](CO)[C@@H](O)[C@H](O)[C@H]2O[C@H]2C[C@](C)(N)[C@H](O)[C@H](C)O2)Oc2ccc(cc2Cl)[C@H]1O [VANCOMYCIN]
- MIC [1]: 1.56 µg/mL (≈ 1.08 µM)
- MIC [2]: > 512 µg/mL
- MIC [3]: > 64 µg/mL
- MIC [4]: > 512 µg/mL

Compound: CCCCc1ccc(-c2nc(C)c(/C(C)=N/NC(=N)N)s2)cc1
- F [5]: 0%

Compound: Cc1nc(-c2ccc(-c3ccccc3)cc2)sc1-c1nnc(NC(=N)N2CCOCC2)o1
- MIC [1]: 1.56 µg/mL (≈ 3.49 µM)
- Activity [6]: Active
- Activity [7]: Non-Toxic

Compound: CO[C@H]1/C=C/O[C@@]2(C)Oc3c(C)c(O)c4c(O)c(c(/C=N/N5CCN(C)CC5)c(O)c4c3C2=O)NC(=O)/C(C)=C\C=C\[C@H](C)[C@H](O)[C@@H](C)[C@@H](O)[C@@H](C)[C@H](OC(C)=O)[C@@H]1C [RIFAMPIN]
- MIC [8]: 0.006 µg/mL (≈ 0.00729 µM)
- MIC [9]: 1.6 µg/mL (≈ 1.94 µM)

Compound: Cc1nc(-c2ccc(-c3ccccc3)cc2)sc1-c1nnc(NC(=N)N2CCCCC2)o1
- MIC [1]: > 25 µg/mL

Compound: Cc1nc(-c2ccc(-c3ccccc3)cc2)sc1-c1nnc(N2CCCC2)o1
- MIC [1]: > 25 µg/mL

Compound: Cc1nc(-c2ccc(-c3ccccc3)cc2)sc1-c1nnc(N2CCOCC2)o1
- MIC [1]: 12.5 µg/mL (≈ 30.9 µM)

Compound: Cc1nc(-c2ccc(-c3ccccc3)cc2)sc1-c1nnc(NC(=N)N2CCN(C)CC2)o1
- IC50 [10]: 398 µg/mL (≈ 866 µM)
- MIC [11]: 16 µg/mL (≈ 34.8 µM)
- MIC [12]: > 64 µg/mL
- Activity [13]: 3 deltalog10CFU/ml
- MIC [14]: 16 µg/mL (≈ 34.8 µM)
- Cmax [15]: 6222.1 ng/mL
- Ratio [16]: 30
- MIC [17]: > 64 µg/mL
- MIC [1]: 1.17 µg/mL (≈ 2.55 µM)
- MIC [18]: > 64 µg/mL
- Ratio [19]: 6
- Activity [6]: Active
- MIC [2]: 16 µg/mL (≈ 34.8 µM)
- Activity [20]: Active
- MIC [21]: > 64 µg/mL
- Activity [22]: Non-Toxic
- MIC [23]: > 64 µg/mL
- MIC [3]: > 64 µg/mL
- MIC [4]: 16 µg/mL (≈ 34.8 µM)
- AUC(0-t) at 24 h [24]: 83200 ng·h/mL
- F [5]: 42.5%
- solubility [25]: 104 µM (≈ 47.8 µg/mL)
- half-life [26]: 2.04 h
- Ratio [27]: 30
- IC50 [28]: 45.7 µg/mL (≈ 99.4 µM)
- selectivity ratio [29]: > 400
- Tmax [30]: 1.7 h
- MIC [31]: 8 µg/mL (≈ 17.4 µM)

Compound: C/C(=C\C(=O)OCCCCCCCCC(=O)O)C[C@@H]1OC[C@H](C[C@@H]2O[C@H]2[C@@H](C)[C@H](C)O)[C@@H](O)[C@H]1O [MUPIROCIN]
- MIC [32]: 1020 µg/mL (≈ 2050 µM)

Compound: Cc1nc(-c2ccc(-c3ccccc3)cc2)sc1-c1nnc(N(C)C)o1
- MIC [1]: > 25 µg/mL

Compound: CC(=O)NC[C@H]1CN(c2ccc(N3CCOCC3)c(F)c2)C(=O)O1 [LINEZOLID]
- MIC [33]: > 128 µg/mL
- MIC [17]: > 64 µg/mL
- MIC [18]: > 64 µg/mL
- MIC [21]: > 64 µg/mL
- MIC [23]: > 64 µg/mL
- MIC [3]: 1 µg/mL (≈ 2.96 µM)
- MIC [34]: > 128 µg/mL

Compound: Cc1nc(-c2ccc(-c3ccccc3)cc2)sc1-c1nnc(NC2CCCCC2)o1
- MIC [1]: > 25 µg/mL

Compound: Cc1nc(-c2ccc(-c3ccccc3)cc2)sc1-c1ccnc(NC(=N)N)n1
- solubility [25]: 2.2 µM (≈ 0.85 µg/mL)

Compound: Cc1nc(-c2ccc(-c3ccccc3)cc2)sc1-c1nnc(NN)o1
- MIC [1]: 3.12 µg/mL (≈ 8.93 µM)
- solubility [25]: 77 µM (≈ 26.9 µg/mL)

Compound: C/C(=N\NC(=N)N)c1sc(-c2ccc(-c3ccccc3)cc2)nc1C
- MIC [1]: 2.75 µg/mL (≈ 7.87 µM)
- solubility [25]: 2.7 µM (≈ 0.944 µg/mL)

Compound: Cc1nc(-c2ccc(-c3ccccc3)cc2)sc1-c1nnc(NC(=N)c2ccncc2)o1
- MIC [1]: > 25 µg/mL

Compound: Cc1nc(-c2ccc(-c3ccccc3)cc2)sc1-c1nnc(NC(=N)c2ccccn2)o1
- MIC [1]: > 25 µg/mL

Compound: Cc1nc(-c2ccc(-c3ccccc3)cc2)sc1-c1nnc(N2CCN(C)CC2)o1
- MIC [1]: 1.56 µg/mL (≈ 3.74 µM)
- solubility [25]: 45 µM (≈ 18.8 µg/mL)

Compound: Cc1nc(-c2ccc(-c3ccccc3)cc2)sc1-c1nnc(NC(=N)N)o1
- IC50 [10]: > 1000 µg/mL
- MIC [1]: 1.56 µg/mL (≈ 4.14 µM)
- solubility [25]: 128 µM (≈ 48.2 µg/mL)
- IC50 [28]: 45 µg/mL (≈ 119 µM)

Compound: Cc1nc(-c2ccc(-c3ccccc3)cc2)sc1-c1nnc(N2CC(O)C2)o1
- MIC [1]: 3.12 µg/mL (≈ 7.99 µM)
- solubility [25]: 150 µM (≈ 58.6 µg/mL)

Compound: Cc1nc(-c2ccc(-c3ccccc3)cc2)sc1-c1nnc(N2CCC2)o1
- MIC [1]: > 25 µg/mL

Compound: CCN(CC)c1nnc(-c2sc(-c3ccc(-c4ccccc4)cc3)nc2C)o1
- MIC [1]: > 25 µg/mL

Compound: Cc1nc(-c2ccc(-c3ccccc3)cc2)sc1-c1nnc(NC(=N)c2cccnc2)o1
- MIC [1]: > 25 µg/mL

Compound: CCCNc1nnc(-c2sc(-c3ccc(-c4ccccc4)cc3)nc2C)o1
- MIC [1]: > 25 µg/mL

Compound: CNC(=N)Nc1nnc(-c2sc(-c3ccc(-c4ccccc4)cc3)nc2C)o1
- MIC [1]: 1.56 µg/mL (≈ 4 µM)
- solubility [25]: 89 µM (≈ 34.8 µg/mL)
